In assay [1] the target is T1, Alpha-1A adrenergic receptor (Homo sapiens, UniProt P35348).
T1 sequence (P35348 whole entry): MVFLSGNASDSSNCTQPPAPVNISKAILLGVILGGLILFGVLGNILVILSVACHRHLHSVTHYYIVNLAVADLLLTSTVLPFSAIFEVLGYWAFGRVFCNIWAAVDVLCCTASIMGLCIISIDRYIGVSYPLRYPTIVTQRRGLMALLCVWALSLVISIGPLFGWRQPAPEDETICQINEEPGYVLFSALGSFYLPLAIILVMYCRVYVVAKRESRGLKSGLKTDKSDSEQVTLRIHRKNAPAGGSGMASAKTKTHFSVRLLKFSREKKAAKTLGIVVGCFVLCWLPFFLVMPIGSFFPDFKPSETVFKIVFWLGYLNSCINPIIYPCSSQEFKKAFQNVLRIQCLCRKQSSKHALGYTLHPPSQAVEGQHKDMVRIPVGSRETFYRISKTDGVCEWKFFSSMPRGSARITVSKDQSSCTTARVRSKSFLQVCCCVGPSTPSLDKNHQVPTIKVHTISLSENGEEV
The format is functional, cell-based.

In assay [2] the target is 5-hydroxytryptamine receptor 2B (Homo sapiens, UniProt P41595). The format is functional, cell-based.
Chain of 5-hydroxytryptamine receptor 2B (P41595 whole entry): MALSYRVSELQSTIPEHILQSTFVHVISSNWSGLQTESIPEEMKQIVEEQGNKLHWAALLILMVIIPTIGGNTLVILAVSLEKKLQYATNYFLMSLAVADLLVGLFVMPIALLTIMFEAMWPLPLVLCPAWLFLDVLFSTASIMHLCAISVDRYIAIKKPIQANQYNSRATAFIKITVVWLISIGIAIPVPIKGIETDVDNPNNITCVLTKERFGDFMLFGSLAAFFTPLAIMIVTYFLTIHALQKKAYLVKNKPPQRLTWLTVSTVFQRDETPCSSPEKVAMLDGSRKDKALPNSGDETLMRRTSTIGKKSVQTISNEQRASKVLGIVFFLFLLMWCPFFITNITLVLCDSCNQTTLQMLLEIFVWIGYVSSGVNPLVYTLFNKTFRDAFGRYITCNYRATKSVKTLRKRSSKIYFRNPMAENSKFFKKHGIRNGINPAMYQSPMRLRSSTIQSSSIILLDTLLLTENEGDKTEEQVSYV
The target of assay [3] is T2, Thromboxane A2 receptor (Homo sapiens, UniProt P21731).
T2 sequence (P21731 whole entry): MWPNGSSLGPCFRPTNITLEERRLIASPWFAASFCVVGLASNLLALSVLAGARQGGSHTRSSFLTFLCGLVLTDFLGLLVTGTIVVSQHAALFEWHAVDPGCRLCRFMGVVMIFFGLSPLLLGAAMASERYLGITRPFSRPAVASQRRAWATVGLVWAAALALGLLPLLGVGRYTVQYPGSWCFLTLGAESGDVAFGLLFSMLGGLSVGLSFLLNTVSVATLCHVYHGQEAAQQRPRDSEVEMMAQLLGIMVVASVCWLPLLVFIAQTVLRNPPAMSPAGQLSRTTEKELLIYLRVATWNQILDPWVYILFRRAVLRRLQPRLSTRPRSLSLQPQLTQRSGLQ

Assay [4] has as its target T1, Alpha-1A adrenergic receptor. Type of assay: functional, cell-based. This is another data set of the same source.
Assay [5] has as its target T3, Cholecystokinin receptor type A (Homo sapiens, UniProt P32238).
T3 sequence (P32238 whole entry): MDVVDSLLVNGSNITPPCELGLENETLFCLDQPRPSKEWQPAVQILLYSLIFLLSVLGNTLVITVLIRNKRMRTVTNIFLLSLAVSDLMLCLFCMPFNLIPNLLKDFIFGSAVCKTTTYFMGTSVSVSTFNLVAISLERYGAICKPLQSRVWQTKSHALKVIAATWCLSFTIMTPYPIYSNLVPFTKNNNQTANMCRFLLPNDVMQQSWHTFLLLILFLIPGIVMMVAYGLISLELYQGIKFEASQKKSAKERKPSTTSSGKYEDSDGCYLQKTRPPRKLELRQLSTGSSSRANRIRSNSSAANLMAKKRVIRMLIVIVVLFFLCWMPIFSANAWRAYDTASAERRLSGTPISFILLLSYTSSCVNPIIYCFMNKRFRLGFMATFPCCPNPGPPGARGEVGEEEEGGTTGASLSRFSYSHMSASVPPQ

The target in assay [6] is T4, Progesterone receptor (Homo sapiens, UniProt P06401).
T4 sequence (P06401 whole entry): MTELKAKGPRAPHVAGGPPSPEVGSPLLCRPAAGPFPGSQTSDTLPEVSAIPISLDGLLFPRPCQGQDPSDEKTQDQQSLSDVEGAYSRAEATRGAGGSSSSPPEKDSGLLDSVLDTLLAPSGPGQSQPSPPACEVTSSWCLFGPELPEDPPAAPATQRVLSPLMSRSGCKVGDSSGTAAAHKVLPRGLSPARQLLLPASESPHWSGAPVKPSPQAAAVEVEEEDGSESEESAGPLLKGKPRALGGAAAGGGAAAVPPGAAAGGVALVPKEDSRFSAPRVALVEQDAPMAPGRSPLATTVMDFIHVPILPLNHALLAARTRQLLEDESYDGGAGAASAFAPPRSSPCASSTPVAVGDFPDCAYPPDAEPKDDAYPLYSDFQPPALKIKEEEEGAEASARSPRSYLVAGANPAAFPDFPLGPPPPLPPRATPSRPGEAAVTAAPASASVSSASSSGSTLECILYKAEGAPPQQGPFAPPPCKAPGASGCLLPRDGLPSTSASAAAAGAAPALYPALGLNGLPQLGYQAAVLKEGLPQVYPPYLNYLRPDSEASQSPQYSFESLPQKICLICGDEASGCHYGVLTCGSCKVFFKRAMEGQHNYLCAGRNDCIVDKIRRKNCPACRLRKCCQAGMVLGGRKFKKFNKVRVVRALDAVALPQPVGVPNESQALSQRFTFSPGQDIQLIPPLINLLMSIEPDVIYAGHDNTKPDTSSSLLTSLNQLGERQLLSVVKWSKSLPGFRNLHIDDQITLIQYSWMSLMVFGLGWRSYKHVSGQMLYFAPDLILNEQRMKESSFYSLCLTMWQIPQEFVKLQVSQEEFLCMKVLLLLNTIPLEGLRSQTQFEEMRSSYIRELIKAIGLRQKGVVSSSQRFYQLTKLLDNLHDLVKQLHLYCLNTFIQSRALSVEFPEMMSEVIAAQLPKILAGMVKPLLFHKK

The target in assay [7] is T5, B2 bradykinin receptor (Homo sapiens, UniProt P30411).
T5 sequence (P30411 whole entry): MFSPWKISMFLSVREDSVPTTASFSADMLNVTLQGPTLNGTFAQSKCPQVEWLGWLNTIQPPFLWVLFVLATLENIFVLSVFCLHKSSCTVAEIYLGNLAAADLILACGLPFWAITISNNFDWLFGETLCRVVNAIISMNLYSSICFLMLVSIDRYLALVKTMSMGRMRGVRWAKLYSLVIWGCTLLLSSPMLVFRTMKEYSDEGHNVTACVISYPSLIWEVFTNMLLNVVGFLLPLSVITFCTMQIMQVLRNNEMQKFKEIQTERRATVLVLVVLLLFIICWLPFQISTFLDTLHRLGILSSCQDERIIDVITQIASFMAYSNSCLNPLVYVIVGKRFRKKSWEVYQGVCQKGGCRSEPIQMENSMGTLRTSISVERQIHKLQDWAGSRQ

In assay [8] the target is Vasopressin V2 receptor (Homo sapiens, UniProt P30518).
Chain of Vasopressin V2 receptor (P30518 whole entry): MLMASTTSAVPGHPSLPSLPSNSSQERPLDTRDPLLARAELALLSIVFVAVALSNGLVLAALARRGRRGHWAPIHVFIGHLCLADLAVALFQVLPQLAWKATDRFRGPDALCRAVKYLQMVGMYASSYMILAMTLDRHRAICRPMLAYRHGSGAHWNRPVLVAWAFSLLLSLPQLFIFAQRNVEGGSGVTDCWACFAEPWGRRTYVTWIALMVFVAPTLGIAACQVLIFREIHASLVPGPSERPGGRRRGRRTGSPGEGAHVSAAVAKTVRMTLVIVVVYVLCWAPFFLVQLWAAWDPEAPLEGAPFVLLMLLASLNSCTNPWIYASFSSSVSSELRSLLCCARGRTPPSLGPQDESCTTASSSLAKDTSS
Assay [9] has as its target Beta-2 adrenergic receptor (Homo sapiens, UniProt P07550).
Assay [10] deals with Mu-type opioid receptor (Homo sapiens, UniProt P35372). The assay is described as follows: biochemical. The format is functional.
Chain of Mu-type opioid receptor (P35372 whole entry): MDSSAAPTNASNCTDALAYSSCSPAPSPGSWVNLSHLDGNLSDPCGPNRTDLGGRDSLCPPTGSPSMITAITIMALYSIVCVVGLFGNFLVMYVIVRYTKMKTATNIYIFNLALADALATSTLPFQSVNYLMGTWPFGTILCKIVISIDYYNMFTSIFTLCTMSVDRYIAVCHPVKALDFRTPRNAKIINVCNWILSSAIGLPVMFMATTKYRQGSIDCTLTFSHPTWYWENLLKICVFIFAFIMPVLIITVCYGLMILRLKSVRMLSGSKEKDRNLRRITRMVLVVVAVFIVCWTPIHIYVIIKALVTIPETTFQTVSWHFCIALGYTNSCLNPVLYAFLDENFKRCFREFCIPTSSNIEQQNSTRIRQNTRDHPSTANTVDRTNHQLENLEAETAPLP
Note: assay procedure not described here.

Chain of Beta-2 adrenergic receptor (P07550 whole entry): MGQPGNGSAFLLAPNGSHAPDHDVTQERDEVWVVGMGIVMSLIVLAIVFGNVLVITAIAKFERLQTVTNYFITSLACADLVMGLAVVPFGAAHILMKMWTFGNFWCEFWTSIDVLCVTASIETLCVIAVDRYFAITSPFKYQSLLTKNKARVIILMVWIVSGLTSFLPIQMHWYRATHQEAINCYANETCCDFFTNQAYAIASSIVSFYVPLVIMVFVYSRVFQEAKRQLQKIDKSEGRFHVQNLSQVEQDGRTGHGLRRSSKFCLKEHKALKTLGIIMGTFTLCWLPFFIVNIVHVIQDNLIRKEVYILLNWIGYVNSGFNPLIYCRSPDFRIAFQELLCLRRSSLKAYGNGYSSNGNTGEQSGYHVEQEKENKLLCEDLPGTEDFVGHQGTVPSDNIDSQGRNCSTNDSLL

Turning to `CC(O)(CS(=O)(=O)c1ccc(F)cc1)C(=O)Nc1ccc(C#N)c(C(F)(F)F)c1` (centres undefined) [BICALUTAMIDE], the AC50 – broadly, the concentration giving half of the maximal activity seen – in assay [1] was more than 30 µM; in assay [2], more than 10 µM; in [3], more than 30 µM; in assay [4] it was more than 3 µM; in assay [5], more than 30 µM; in assay [6], 0.46 µM. The AC50 in assay [7], in assay [8] and in assay [9] was more than 30 µM throughout.
As for `O=C(O)COCCN1CCN(C(c2ccccc2)c2ccc(Cl)cc2)CC1` (centres undefined) [CETIRIZINE], the AC50 in [1], in [3], in assay [4], in assay [5], in assay [6] and in [7] was more than 30 µM in each case. In addition, the half-maximal activity concentration (AC50) is more than 30 µM in assay [8] and more than 10 µM in assay [9].
In the case of `CC[N+](C)(CC)CCOC(=O)C(O)(c1ccccc1)C1CCCCC1` (centres undefined) [OXYPHENONIUM], the AC50 in assay [4] and in assay [6] was more than 30 µM throughout.
As to `C[C@@H]1C[C@H]2[C@@H]3C[C@H](F)C4=CC(=O)C=C[C@]4(C)[C@H]3[C@@H](O)C[C@]2(C)[C@@]1(O)C(=O)CO` [PARAMETHASONE], the concentration at half-maximal activity (AC50) in [4] was more than 30 µM; in assay [6] it was 5.1 µM.
With `CCC[C@H](N[C@@H](C)C(=O)N1[C@H](C(=O)O)C[C@@H]2CCCC[C@@H]21)C(=O)OCC` [PERINDOPRIL], the concentration at half-maximal activity (AC50) in assay [4] and in [6] was more than 30 µM in each case.
As for `NNCCc1ccccc1` [PHENELZINE], the results for the half-maximal activity concentration (AC50) in assay [4] and in assay [6] were more than 1 µM and more than 30 µM, respectively.
Consider `N[C@@H](Cc1ccccc1)C(=O)O` [PHENYLALANINE], for which the concentration at half-maximal activity (AC50) in assay [4] and in [6] was more than 30 µM throughout.
Turning to `CCCn1cnc2c1c(=O)n(CCCCC(C)=O)c(=O)n2C` [PROPENTOFYLLINE], the AC50 in assay [4] and in assay [6] was more than 30 µM each time.
On to `COC(=O)[C@H]1[C@H]2C[C@@H]3c4[nH]c5cc(OC)ccc5c4CCN3C[C@H]2C[C@@H](OC(=O)c2cc(OC)c(OC)c(OC)c2)[C@@H]1OC` [RESERPINE], for which the AC50 is more than 30 µM in [10]; more than 10 µM in assay [2]; more than 10 µM in assay [3]; more than 30 µM in [4]; more than 10 µM in [5]; more than 30 µM in [6]. Further, the AC50 in assay [7], in [8] and in [9] was more than 10 µM throughout.
For `COc1cc(C)c2c(Oc3cccc(C(F)(F)F)c3)c(OC)cc(NC(C)CCCN)c2n1` (centres undefined) [TAFENOQUINE], the AC50 in assay [4] was more than 3 µM; in assay [6], 4.23 µM.
For `CCCSc1nc(N[C@@H]2C[C@H]2c2ccc(F)c(F)c2)c2nnn([C@@H]3C[C@H](OCCO)[C@@H](O)[C@H]3O)c2n1` [TICAGRELOR], the results for the AC50 in assay [4] and in assay [6] were more than 10 µM and 7.6 µM, respectively.
Turning to `Cc1ccc(C(=O)C(C)CN2CCCCC2)cc1` (centres undefined) [TOLPERISONE], the AC50 in assay [4] and in assay [6] was more than 30 µM each time.

The record behind these values is ChEMBL document CHEMBL5291721, “A preclinical secondary pharmacology resource illuminates target-adverse drug reaction associations of marketed drugs” (Nat Commun, 2023).
